Laboratory results: PubChem BioAssay AID330 (DTP/NCI, 2004)
Several values for one entry are separate records, joined by “and”; a condition that tells them apart may be missing. Identical values can stand only once. Inconclusive results and toxic doses are left out.

Tested on: P388 leukemia ip, CD2F1 mice, survival T/C
Assay: NCI In Vivo Anticancer Drug Screen. Data for tumor model P388 Leukemia (intraperitoneal) in CD2F1 (CDF1) mice
Settings: endpoint: median survival time, higher = longer survival
Procedure, shortened: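 Mice carrying the transplanted tumor received test compound or vehicle. Survival was recorded in each group, and the value is the treated-group measurement divided by that of the vehicle-treated control group.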

[1] = dose: 50.0 mg/kg/injection, schedule: Q01DX005 (ip), vehicle: saline with Tween-80
[2] = dose: 100.0 mg/kg/injection, schedule: Q01DX005 (ip), vehicle: saline with Tween-80
[3] = dose: 200.0 mg/kg/injection, schedule: Q01DX005 (ip), vehicle: saline with Tween-80
[4] = dose: 50.0 mg/kg/injection, schedule: Q01DX009 (ip), vehicle: Klucel (hydroxypropylcellulose) (HPC)
[5] = dose: 50.0 mg/kg/injection, schedule: Q01DX009 (ip), vehicle: saline
[6] = dose: 100.0 mg/kg/injection, schedule: Q01DX009 (ip), vehicle: saline
[7] = dose: 200.0 mg/kg/injection, schedule: Q01DX009 (ip), vehicle: saline

Question: What does the source list for `CC(=O)C1(C)CCOC1=O` (centres undefined)?
Answer: T/C [1]: 100 % of control; T/C [2]: 100 % of control; T/C [3]: 109 % of control

Question: `CCCCCCCC(=O)C(=O)c1ccc(O)cc1O` was tested. Which T/C [4] did it give?
Answer: 109 % of control

Question: And the T/C (dose: 100.0 mg/kg/injection, schedule: Q01DX009 (ip), vehicle: Klucel (hydroxypropylcellulose) (HPC))?
Answer: 112 % of control

Question: And the T/C (dose: 200.0 mg/kg/injection, schedule: Q01DX009 (ip), vehicle: Klucel (hydroxypropylcellulose) (HPC))?
Answer: 113 % of control

Question: For `N#CC(C(=O)C(N)=O)c1nc2ccccc2s1` (centres undefined), which T/C [1] is on record?
Answer: 105 % of control

Question: What about the T/C [2] of the same molecule?
Answer: 101 % of control

Question: For `C=CCNC(=O)/C(C)=C(\C)c1ccccc1`, which T/C (dose: 50.0 mg/kg/injection, schedule: Q04DX002 (ip), vehicle: Klucel (hydroxypropylcellulose) (HPC)) is on record?
Answer: 102 % of control

Question: And the T/C (dose: 100.0 mg/kg/injection, schedule: Q04DX002 (ip), vehicle: Klucel (hydroxypropylcellulose) (HPC))?
Answer: 102 % of control

Question: What about the T/C (dose: 200.0 mg/kg/injection, schedule: Q04DX002 (ip), vehicle: Klucel (hydroxypropylcellulose) (HPC)) of the same molecule?
Answer: 103 % of control

Question: Which T/C (dose: 25.0 mg/kg/injection, schedule: Q01DX009 (ip), vehicle: saline) does the source give for `CCCCOCC(=O)O` here?
Answer: 94 % of control

Question: And the T/C [5]?
Answer: 97 % of control

Question: And the T/C [6]?
Answer: 93 % of control

Question: `Cc1cc(Cl)n2nc(-c3ccc(Cl)cc3)nc2n1` was tested. Which T/C (dose: 12.5 mg/kg/injection, schedule: Q01DX009 (ip), vehicle: Klucel (hydroxypropylcellulose) (HPC)) did it give?
Answer: 106 % of control

Question: What about the T/C (dose: 25.0 mg/kg/injection, schedule: Q01DX009 (ip), vehicle: Klucel (hydroxypropylcellulose) (HPC)) of the same molecule?
Answer: 100 % of control

Question: And the T/C [4]?
Answer: 109 % of control and 110 % of control

Question: How did the T/C (dose: 50.0 mg/kg/injection, schedule: Q01DX009 (ip), vehicle: saline with Tween-80) turn out when `CC12C=C3C4(CCCC3(O1)c1ccccc12)OCCO4` (centres undefined) was run?
Answer: 96 % of control

Question: And the T/C (dose: 100.0 mg/kg/injection, schedule: Q01DX009 (ip), vehicle: saline with Tween-80)?
Answer: 102 % of control

Question: What about the T/C (dose: 200.0 mg/kg/injection, schedule: Q01DX009 (ip), vehicle: saline with Tween-80) of the same molecule?
Answer: 99 % of control

Question: `COC(=O)/C=C\C1(CC(C)C)N=C(c2ccccc2)OC1=O` (centres undefined) was tested. Which T/C [1] did it give?
Answer: 104 % of control

Question: And the T/C [2]?
Answer: 95 % of control

Question: And the T/C [3]?
Answer: 104 % of control

Question: Which results are given for `O=NN(CCF)C(=O)NC1CCS(=O)(=O)CC1`?
Answer: T/C (dose: 1.25 mg/kg/injection, schedule: Q04DX003 (ip), vehicle: saline): 177 % of control; T/C (dose: 2.5 mg/kg/injection, schedule: Q01DX009 (ip), vehicle: saline): 220 % of control; T/C (dose: 2.5 mg/kg/injection, schedule: Q04DX003 (ip), vehicle: saline): 250 % of control; T/C (dose: 5.0 mg/kg/injection, schedule: Q01DX009 (ip), vehicle: saline): 300 % of control; T/C (dose: 5.0 mg/kg/injection, schedule: Q04DX003 (ip), vehicle: saline with Tween-80): 240 % of control; T/C (dose: 5.0 mg/kg/injection, schedule: Q04DX003 (ip), vehicle: saline): 272 % of control; T/C (dose: 6.6 mg/kg/injection, schedule: Q04DX003 (ip), vehicle: saline with Tween-80): 280 % of control; T/C (dose: 10.0 mg/kg/injection, schedule: Q01DX009 (ip), vehicle: saline): 300 % of control; T/C (dose: 10.0 mg/kg/injection, schedule: Q04DX003 (ip), vehicle: saline with Tween-80): 272 % of control and 285 % of control; T/C (dose: 15.0 mg/kg/injection, schedule: Q04DX003 (ip), vehicle: saline with Tween-80): 285 % of control

Question: How did the T/C (dose: 100.0 mg/kg/injection, schedule: Q04DX003 (ip), vehicle: saline) turn out when `N=C(N)c1ccc2oc(/C=C/C=C/C=C/c3cc4cc(C(=N)N)ccc4o3)cc2c1` was run?
Answer: 124 % of control

Question: Which T/C [5] does the source give for `COc1ccc(/C=C/c2ccnnc2)cc1` here?
Answer: 99 % of control and 102 % of control

Question: And the T/C [6]?
Answer: 108 % of control

Question: And the T/C [7]?
Answer: 99 % of control and 94 % of control

Question: How did the T/C [5] turn out when `CCSC(C)(C)C` was run?
Answer: 102 % of control

Question: What about the T/C [6] of the same molecule?
Answer: 100 % of control

Question: And the T/C [7]?
Answer: 100 % of control

Question: For `O=C(Nc1ccc(N=Nc2ccc3cc(S(=O)(=O)O)cc(S(=O)(=O)O)c3c2)cc1)c1ccc(N=Nc2c(O)ccc3cc(S(=O)(=O)O)cc(S(=O)(=O)O)c23)cc1`, which T/C (dose: 50.0 mg/kg/injection, schedule: Q01DX005 (ip), vehicle: saline) is on record?
Answer: 104 % of control

Question: What about the T/C (dose: 100.0 mg/kg/injection, schedule: Q01DX005 (ip), vehicle: saline) of the same molecule?
Answer: 99 % of control

Question: What about the T/C (dose: 200.0 mg/kg/injection, schedule: Q01DX005 (ip), vehicle: saline) of the same molecule?
Answer: 98 % of control

Question: For `C1CCOCCOCCOCCOCCOCCCCCC2(CC1)OCCO2`, which T/C [1] is on record?
Answer: 96 % of control

Question: And the T/C [2]?
Answer: 94 % of control

Question: What about the T/C [3] of the same molecule?
Answer: 96 % of control

Question: How did the T/C [5] turn out when `O=C(SCCO)SCCO` was run?
Answer: 86 % of control

Question: What about the T/C [6] of the same molecule?
Answer: 89 % of control

Question: And the T/C [7]?
Answer: 88 % of control
